# Measurements reported in ChEMBL document CHEMBL1201862, “PubChem BioAssay data set” (2004).
# Calls of active or inactive are those of the source.
# Experiments:
# [1] = target: T1, Zinc finger protein mex-5 (Caenorhabditis elegans, UniProt Q9XUB2); assay: potency of MEX-5 RNA-binding blockers – biochemical, C. elegans, fluorescence polarization, dose response (AID 1960)
# T1 sequence (Q9XUB2 whole entry): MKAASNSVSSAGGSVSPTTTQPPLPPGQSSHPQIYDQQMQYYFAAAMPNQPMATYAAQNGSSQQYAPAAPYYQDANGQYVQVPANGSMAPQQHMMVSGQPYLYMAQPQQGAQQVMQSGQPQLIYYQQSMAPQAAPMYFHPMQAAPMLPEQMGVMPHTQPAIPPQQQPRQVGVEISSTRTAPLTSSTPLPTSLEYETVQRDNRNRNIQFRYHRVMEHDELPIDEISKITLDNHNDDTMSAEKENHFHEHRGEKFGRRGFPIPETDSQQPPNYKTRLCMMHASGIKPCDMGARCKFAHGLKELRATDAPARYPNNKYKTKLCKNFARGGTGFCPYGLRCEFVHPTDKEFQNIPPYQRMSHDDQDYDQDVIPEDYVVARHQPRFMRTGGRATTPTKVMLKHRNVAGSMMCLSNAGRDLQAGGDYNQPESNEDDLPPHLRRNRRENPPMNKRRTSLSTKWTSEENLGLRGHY
# [2] = target: FAD-linked sulfhydryl oxidase ALR (Homo sapiens, UniProt P55789); assay: ALR-catalysed DTT oxidation blockers – biochemical, H2O2 detection, luminescence, cherry-pick, dose response (AID 493248)
# [3] = target: T2, RNA-binding protein pos-1 (Caenorhabditis elegans, UniProt G5EF15); assay: disruptors of C. elegans POS-1 RNA interaction – biochemical, fluorescence polarization, dose response (AID 1964);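 further: purified POS-1 fused to maltose binding protein made in E. coli; potency of compounds blocking POS-1 binding to fluorescent RNA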
# T2 sequence (G5EF15 whole entry): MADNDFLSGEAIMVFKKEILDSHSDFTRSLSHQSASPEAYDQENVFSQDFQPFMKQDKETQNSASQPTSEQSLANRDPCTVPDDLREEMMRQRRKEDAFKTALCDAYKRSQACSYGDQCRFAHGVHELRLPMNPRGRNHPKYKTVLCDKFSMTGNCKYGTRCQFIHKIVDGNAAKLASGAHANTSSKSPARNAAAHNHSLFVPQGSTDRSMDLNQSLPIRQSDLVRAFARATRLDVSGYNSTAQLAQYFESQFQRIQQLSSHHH
# [4] = target: Large T antigen (Simian virus 40, UniProt P03070); assay type: functional, Betapolyomavirus macacae;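 further: Confirmatory-stage PubChem screen for compounds that inhibit SV40 T antigen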
# [5] = target: Glucose-6-phosphate 1-dehydrogenase (Homo sapiens, UniProt P11413); assay: inhibition of Homo sapiens G6PD, dose series – biochemical, fluorescence, selectivity assay for P. falciparum G6PD inhibitor project, dose response (AID 504792); assay type: functional
# [6] = tested on: SN12K1; assay: cells; assay type: functional
# [7] = tested on: P388/ADR; assay: cells; assay type: functional
# [8] = tested on: P388; assay: cells; assay type: functional
# [9] = A cytotoxicity screen of small molecule inhibitors of the PhoP region in Salmonella typhi identified in the primary screen. [Related pubchem assays: 1850, 1864, 1985 ]; assay type: functional
# [10] = target: Ras and Rab interactor 1/Tyrosine-protein kinase ABL1 (Homo sapiens, UniProt P00519+Q13671); assay type: functional;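 further: biochemical TR-FRET dose-response test measuring inhibition of binding between Rin1 and Abl proteins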
# [11] = target: Protein Wnt-3a (Mus musculus, UniProt P27467); assay: antagonism of Wnt3a pathway luciferase reporter – Wnt-LIGHT cells, luminescence, selectivity assay for Gli-SUFU antagonist project, dose response (AID 651570); assay type: functional; conditions: read-out: IC50_Mean;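 further: Wnt-LIGHT reporter cells stimulated with conditioned medium from Wnt3a-producing cells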
# [12] = target: T3, Long-chain-fatty-acid--AMP ligase FadD28 (Mycobacterium tuberculosis, UniProt P9WQ59); assay: Fluorescence polarization aasay to screen for inhibitors that compete for the binding of FadD28 to a bisubstrate Measured in Biochemical System Using Plate Reader - 2147-01_Inhibitor_Dose_CherryPick_Activity.; assay type: functional, Mycobacterium tuberculosis H37Rv
# T3 sequence (P9WQ59 whole entry): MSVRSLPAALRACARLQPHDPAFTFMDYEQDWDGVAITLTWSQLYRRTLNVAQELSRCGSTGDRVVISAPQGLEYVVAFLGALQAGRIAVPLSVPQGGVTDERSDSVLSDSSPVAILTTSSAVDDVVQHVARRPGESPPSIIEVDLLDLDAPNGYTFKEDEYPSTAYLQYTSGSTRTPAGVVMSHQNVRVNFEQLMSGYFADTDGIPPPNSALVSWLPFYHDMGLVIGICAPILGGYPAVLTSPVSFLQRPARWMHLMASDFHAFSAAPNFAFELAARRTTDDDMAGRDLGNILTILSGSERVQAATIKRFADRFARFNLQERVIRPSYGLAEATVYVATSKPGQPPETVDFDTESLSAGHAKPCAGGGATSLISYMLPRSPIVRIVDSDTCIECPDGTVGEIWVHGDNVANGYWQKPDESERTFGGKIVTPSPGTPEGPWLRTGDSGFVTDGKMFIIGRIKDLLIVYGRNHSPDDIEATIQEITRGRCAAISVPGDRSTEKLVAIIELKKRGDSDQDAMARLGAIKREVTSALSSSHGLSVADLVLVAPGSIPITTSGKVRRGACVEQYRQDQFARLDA
# [13] = target: Genome polyprotein (dengue virus type 2, UniProt P29990); assay: flavivirus cap methylation enzyme inhibition – biochemical, confirmation dose response, primary screen (AID 588689); assay type: functional
# [14] = Luminescence Cell-Based Dose Retest to Confirm Inhibitors of Cancer Stem Cells. [Related pubchem assays (depositor defined):AID2717, AID2721]; assay type: functional; conditions: Homo sapiens
# [15] = A Cell Based Secondary Assay To Explore Cytotoxicity of Compounds that Sensitize Mycobacterium Tuberculosis to Beta-Lactam Antibiotics.; assay type: functional
# [16] = P. falciparum Dd2 growth inhibitors, dose response, SYBR Green, cherry-picked samples (AID 1159567); assay type: functional, cell-based
# [17] = growth inhibition of yeast DHODH-expressing 3D7 parasites – SYBR Green, dry powder samples, dose response (AID 1159570); assay type: functional, cell-based;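 further: parasite growth measured after 72 hours of compound exposure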
# [18] = Dd2 malaria parasite growth inhibition potency – SYBR Green, dry powder samples, dose response (AID 1159566); assay type: functional, cell-based;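 further: potency for growth inhibition with lower SYBR green DNA signal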
# [19] = growth inhibition of PfATP4-mutant resistant parasites – NITD609-resistant line, SYBR Green, dry powder, dose response (AID 1159571); assay type: functional, cell-based;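 further: parasites synchronized at ring stage by sorbitol before testing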
# [20] = target: Melanin-concentrating hormone receptor 1 (Homo sapiens, UniProt Q99705); assay: Fluorescence-based counterscreen for antagonists of the G-protein coupled receptor 7 (GPR7): cell-based high throughput dose response assay to identify antagonists of the melanin-concentrating hormone receptor 1 (MCHR1).; assay type: functional
# [21] = target: T4, Neuropeptides B/W receptor type 1 (Homo sapiens, UniProt P48145); assay: Fluorescence-based dose response cell-based high throughput screening assay to identify antagonists of the G-protein coupled receptor 7 (GPR7). [Related pubchem assays: 1952 (Screening assay (GPR7 antagonists).), 1880 (Summary AID.)]; assay type: functional
# T4 sequence (P48145 whole entry): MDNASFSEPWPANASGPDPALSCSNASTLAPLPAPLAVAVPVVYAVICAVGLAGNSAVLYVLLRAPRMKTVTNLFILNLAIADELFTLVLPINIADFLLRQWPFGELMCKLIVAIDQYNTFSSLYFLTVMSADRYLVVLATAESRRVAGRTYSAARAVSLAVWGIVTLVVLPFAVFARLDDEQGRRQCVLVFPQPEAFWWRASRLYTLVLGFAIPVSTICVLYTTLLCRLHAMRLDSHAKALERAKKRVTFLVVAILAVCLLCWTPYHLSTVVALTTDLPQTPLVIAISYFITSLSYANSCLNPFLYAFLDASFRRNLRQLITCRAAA
# [22] = target: Nonstructural protein 1 (Influenza A virus, UniProt Q194T2); assay type: functional, Influenza A virus (A/California/07/2009(H1N1))
# Sequence of Nonstructural protein 1 (Q194T2 whole entry): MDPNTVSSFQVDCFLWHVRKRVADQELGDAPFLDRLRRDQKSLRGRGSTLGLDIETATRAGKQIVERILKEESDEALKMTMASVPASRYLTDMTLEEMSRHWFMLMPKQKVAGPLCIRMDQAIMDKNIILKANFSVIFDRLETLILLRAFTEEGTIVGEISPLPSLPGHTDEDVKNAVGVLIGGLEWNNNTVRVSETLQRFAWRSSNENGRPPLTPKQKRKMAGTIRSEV
# Sequence of Ras and Rab interactor 1/Tyrosine-protein kinase ABL1 (P00519 whole entry): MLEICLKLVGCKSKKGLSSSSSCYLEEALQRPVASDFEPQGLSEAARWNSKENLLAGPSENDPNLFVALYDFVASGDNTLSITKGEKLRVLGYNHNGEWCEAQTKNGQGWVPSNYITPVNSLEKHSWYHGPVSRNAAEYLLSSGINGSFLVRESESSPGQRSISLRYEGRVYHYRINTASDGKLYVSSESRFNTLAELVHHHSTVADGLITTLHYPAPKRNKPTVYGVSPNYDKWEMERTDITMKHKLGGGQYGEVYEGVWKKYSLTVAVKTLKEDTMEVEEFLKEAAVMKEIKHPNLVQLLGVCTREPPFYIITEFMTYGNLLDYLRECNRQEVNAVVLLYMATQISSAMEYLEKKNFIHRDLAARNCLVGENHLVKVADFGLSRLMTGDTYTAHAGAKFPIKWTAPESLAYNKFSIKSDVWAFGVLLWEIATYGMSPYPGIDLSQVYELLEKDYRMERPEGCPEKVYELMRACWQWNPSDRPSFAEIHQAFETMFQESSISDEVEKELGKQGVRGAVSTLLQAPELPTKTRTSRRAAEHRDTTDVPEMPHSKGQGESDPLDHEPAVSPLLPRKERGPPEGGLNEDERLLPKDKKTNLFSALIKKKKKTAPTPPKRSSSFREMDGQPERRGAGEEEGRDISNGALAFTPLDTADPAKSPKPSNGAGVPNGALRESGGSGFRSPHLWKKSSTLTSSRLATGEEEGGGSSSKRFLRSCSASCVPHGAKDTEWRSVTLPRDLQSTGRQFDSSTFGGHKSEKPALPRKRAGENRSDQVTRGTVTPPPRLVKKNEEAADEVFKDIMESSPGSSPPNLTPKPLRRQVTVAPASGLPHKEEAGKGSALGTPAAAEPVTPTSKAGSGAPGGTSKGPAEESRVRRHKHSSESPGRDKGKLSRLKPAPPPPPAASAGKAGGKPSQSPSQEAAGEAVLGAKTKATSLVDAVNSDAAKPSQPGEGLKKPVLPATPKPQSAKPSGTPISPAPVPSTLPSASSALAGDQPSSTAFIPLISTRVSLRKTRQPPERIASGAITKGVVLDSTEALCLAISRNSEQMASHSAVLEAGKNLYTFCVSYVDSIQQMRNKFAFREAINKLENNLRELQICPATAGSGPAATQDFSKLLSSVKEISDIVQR
# Sequence of Ras and Rab interactor 1/Tyrosine-protein kinase ABL1 (Q13671 whole entry): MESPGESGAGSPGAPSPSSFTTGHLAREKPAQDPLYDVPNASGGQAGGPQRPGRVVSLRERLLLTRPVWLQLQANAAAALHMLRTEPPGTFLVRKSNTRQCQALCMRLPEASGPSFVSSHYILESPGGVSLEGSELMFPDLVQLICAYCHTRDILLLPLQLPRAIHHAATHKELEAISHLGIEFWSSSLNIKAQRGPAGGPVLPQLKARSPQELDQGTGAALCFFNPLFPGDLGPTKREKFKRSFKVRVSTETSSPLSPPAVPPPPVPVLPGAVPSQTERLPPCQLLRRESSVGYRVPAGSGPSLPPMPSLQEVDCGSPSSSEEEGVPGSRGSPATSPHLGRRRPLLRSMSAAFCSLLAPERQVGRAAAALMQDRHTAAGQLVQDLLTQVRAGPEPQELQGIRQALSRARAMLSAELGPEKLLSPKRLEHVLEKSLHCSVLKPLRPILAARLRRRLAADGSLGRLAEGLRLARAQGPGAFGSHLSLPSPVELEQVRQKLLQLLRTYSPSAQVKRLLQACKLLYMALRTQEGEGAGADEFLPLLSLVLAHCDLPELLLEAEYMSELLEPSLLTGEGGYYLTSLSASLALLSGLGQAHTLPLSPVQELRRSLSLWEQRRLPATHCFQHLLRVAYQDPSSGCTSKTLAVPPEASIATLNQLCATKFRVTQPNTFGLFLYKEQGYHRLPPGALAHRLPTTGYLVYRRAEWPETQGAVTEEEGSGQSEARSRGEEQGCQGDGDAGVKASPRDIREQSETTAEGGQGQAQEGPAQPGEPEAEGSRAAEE
# Sequence of Melanin-concentrating hormone receptor 1 (Q99705 whole entry): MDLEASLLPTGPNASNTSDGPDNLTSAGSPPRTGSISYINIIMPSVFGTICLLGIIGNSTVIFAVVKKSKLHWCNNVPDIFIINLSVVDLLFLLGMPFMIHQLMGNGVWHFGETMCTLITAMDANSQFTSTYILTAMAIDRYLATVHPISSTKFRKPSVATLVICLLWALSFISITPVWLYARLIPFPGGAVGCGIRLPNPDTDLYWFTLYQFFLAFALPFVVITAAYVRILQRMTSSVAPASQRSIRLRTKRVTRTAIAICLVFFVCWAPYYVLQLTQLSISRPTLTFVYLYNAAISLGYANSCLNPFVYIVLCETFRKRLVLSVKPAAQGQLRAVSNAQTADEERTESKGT
# Sequence of Glucose-6-phosphate 1-dehydrogenase (P11413 whole entry): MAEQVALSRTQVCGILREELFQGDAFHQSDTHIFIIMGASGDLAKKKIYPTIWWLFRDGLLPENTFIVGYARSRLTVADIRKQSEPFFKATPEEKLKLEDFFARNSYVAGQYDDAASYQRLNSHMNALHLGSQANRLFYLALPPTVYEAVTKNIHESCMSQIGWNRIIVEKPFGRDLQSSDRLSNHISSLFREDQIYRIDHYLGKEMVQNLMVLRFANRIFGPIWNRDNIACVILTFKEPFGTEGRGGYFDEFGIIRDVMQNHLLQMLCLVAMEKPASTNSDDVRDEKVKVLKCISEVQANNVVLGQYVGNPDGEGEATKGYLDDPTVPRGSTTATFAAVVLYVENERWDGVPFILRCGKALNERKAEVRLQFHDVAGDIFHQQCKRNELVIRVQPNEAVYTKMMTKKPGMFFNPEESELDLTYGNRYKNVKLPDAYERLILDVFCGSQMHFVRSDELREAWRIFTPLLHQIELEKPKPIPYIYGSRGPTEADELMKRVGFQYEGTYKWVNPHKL
# Sequence of FAD-linked sulfhydryl oxidase ALR (P55789 whole entry, the tested form may be a part): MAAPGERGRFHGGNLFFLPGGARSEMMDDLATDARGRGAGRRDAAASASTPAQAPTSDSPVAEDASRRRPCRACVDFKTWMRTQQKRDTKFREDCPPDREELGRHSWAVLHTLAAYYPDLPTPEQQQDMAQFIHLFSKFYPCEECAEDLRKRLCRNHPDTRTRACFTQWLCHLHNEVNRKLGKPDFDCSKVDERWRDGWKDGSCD
# Sequence of Genome polyprotein (P29990 2492-3391 limits assumed): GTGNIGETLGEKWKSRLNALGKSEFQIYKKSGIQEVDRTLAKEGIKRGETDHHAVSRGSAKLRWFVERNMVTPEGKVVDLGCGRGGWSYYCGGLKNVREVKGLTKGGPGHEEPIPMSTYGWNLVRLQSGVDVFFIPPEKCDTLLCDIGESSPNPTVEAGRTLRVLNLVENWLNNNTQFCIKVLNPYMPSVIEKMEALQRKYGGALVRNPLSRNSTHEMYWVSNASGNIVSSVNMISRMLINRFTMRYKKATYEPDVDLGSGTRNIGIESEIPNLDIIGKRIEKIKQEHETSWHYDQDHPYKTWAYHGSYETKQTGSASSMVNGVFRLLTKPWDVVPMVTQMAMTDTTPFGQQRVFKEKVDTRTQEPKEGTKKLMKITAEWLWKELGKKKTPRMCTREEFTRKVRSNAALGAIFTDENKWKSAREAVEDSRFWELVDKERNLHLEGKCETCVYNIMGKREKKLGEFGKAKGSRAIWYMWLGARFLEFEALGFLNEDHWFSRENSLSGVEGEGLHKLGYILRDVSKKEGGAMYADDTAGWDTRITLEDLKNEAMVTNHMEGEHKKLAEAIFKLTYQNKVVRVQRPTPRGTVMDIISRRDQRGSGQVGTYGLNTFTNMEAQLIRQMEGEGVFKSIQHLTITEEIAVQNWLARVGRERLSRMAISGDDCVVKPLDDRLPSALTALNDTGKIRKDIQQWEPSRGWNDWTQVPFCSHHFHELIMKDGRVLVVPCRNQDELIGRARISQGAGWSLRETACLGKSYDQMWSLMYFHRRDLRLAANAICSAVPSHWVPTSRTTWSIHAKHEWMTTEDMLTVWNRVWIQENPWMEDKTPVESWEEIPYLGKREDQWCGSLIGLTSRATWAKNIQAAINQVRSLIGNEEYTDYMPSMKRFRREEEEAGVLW
# Sequence of Protein Wnt-3a (P27467 whole entry): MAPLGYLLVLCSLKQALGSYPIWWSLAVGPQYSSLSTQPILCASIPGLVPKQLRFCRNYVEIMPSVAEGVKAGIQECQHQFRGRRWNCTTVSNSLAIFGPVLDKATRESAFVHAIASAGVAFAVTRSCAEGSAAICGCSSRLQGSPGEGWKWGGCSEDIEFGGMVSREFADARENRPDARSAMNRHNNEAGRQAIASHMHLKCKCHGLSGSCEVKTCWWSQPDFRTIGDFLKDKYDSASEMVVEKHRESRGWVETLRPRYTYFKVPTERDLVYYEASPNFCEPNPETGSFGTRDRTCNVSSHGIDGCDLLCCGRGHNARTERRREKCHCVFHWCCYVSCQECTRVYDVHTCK
compound,measurement,setting,value
CCCN1CCc2cccc3c2[C@H]1Cc1ccc(O)c(O)c1-3,EC50,[1],3.12 µM (active)
same,AC50,[2],0.009 µM (active)
same,EC50,[3],5.56 µM (active)
same,IC50,[4],29.7 µM (active)
same,IC50,[5],> 80 µM (inactive)
O=C1CCCn2c3ccccc3c3ccnc1c32,GI50,"[6]; Homo sapiens, SN12K1",39.9 µM (inactive)
same,GI50,"[7]; Mus musculus, P388/ADR",20 µM (inactive)
same,GI50,"[8]; Mus musculus, P388",22.6 µM (inactive)
c1cc(N2CCCC2)ccc1C(c1nnnn1C1CCCCC1)N1CCOCC1 (configuration not stated),EC50,[9],> 50 µM (active)
CCN(CC)C(=O)c1ccc(NC(=O)c2cc(S(=O)(=O)N3CCCCCC3)ccc2OC)cc1,IC50,[10],0.618 µM (active)
Cc1ccc(NCC(=O)Nc2cccc(S(=O)(=O)N(C)C)c2)cc1S(=O)(=O)N1CCCCCC1,IC50,[11],8.18 µM (active)
O=C1NN(c2cccc(Br)c2)C(=O)/C1=C\c1ccccc1,AC50,[12],> 100 µM (inactive)
same,IC50,[13],35.1 µM (active)
same,AC50,[14],3.04 µM (active)
N=C(NC(=O)c1ccccc1NC(=O)c1ccccc1)Nc1nc2ccccc2o1,CC50,[15],> 40 µM (active)
CC(C)(C)[S+]([O-])N1Cc2cc(C(=O)NCc3ccc(Oc4ccccc4)cc3)nc(-c3cccc(-c4cccc(F)c4)c3)c2[C@@H]1CCO (some centres not stated),AC50,[16],1.23 µM (active)
same,AC50,[17],0.831 µM (active)
same,AC50,[18],0.658 µM (active)
same,AC50,[19],0.417 µM (active)
OCCCNc1ncnc2c1ncn2[C@H]1CN(Cc2ccc(-c3ccccc3)cc2)C[C@@H](CO)O1,IC50,[10],20.6 µM (inactive)
CCN(CC(=O)Nc1cccc(C#N)c1)CC(=O)Nc1cccc(OC)c1,IC50,[20],27.9 µM (not active)
same,IC50,[21],> 43.8 µM (not active)
C=CCc1cc(Cl)ccc1OCCCNC(C)CC (configuration not stated),CC50,[15],> 40 µM (active)
Cc1ncc(CCl)c2c1OC(C)(C)OC2,CC50,[15],> 40 µM (active)
COc1ccc2[nH]c3c(C)c4cc[n+](C)cc4c(C)c3c2c1,GI50,[6],0.287 µM (active)
same,GI50,[7],47.4 µM (inactive)
same,GI50,[8],0.796 µM (active)
Nc1cc2c(cc1[N+](=O)[O-])[nH]c1c(-c3ccccc3)nccc12,GI50,"[6]; Homo sapiens, SN12K1",20.7 µM (inactive)
same,GI50,"[7]; Mus musculus, P388/ADR",17.7 µM (inactive)
same,GI50,"[8]; Mus musculus, P388",17.2 µM (inactive)
O=C(NN1C(=O)/C(=C/c2nc3ccccc3[nH]2)SC1=S)c1ccccc1,AC50,[12],70.5 µM (active)
same,IC50,[22],> 100 µM (active)
